In US5187086A, “Molecules with antibody combining sites that catalyze hydrolysis reactions through use of a charged hapten” (Scripps Clinic and Research Foundation, priority 1991, dated 1993):
One block for each molecule: values may come before it.

Key:
Type in all cases: biochemical, mouse (129G1X)
[1] = test system: monoclonal receptor (antibody) 27A6 (hybridoma 27A6, ATCC HB 10621), IgG induced by hapten Compound 5a; test: Chemical modification of antibody 27A6, then assay of catalytic (esterolytic) activity by HPLC
Procedure: The esterolytic activity of monoclonal receptor 27A6 was unaffected by treatment with diethyl pyrocarbonate or maleic anhydride in fifty-fold molar excess to protein.
(a) Phenylglyoxal; a 50 μl aliquot of a phenylglyoxal solution (6 mM), (125 mM NaHCO3, pH 7.5) was added to buffer 195 μl (125 mM, pH 7.5 NaHCO3), containing antibody (20 μM). The mixture was vortexed and left to stand for one hour at room temperature. This reaction mixture was then transferred to a microdialyzer (Pierce) and dialyzed with 125 mM, pH 7.5 NaHCO3 with a flow through of approximately 150 ml/hour for two hours. The microdialyzer was then flushed with 4×60 ml portions of pH 8.4, 50 mM CHES, 100 mM NaCl and left to stand in this buffer overnight (about 15-18 hours). The microdialyzer was again flushed 3×50 ml portions of pH 8.4, 50 mM CHES, 100 mM NaCl the next morning. Samples were removed, protein concentrations recalculated (BCA) and assays run for catalytic activity (HPLC) or binding (ELISA). A similar procedure was used with hapten present (200 μM).
(b) Maleic anhydride; a […] aliquot of a maleic anhydride solution (0.06 M, dioxane) was added to 299 μl of 20 mM, pH 8.9 borate, 100 mM NaCl containing 20 μM of antibody. The solution was vortexed and left to stand at room temperature for one hour. This reaction mixture was then transferred to a microdialyzer and dialyzed as described above with 50 mM CHES, pH 8.4, 100 mM NaCl. Samples were removed, protein concentrations calculated (BCA), and assays run for catalytic activity or binding.
(c) Diethyl pyrocarbonate; 10 μl of a 0.6 M diethylpyrocarbonate solution in ethanol was diluted into 1 ml of sodium acetate (NaOAc) (150 mM, pH 6, 100 mM NaCl). Five microliters of that solution were added to 299 μl of NaOAc (150 mM, pH 6.0, 100 mM NaCl) containing 20 µM of antibody. The mixture was vortexed and left to stand at 4° degrees C. overnight (about 15-18 hours). This reaction mixture was then transferred to a microdialyzer and dialyzed as described above with CHES (50 mM, pH 8.4, 100 mM NaCl). Samples were removed, protein concentrations determined (BCA) and assays performed for catalytic activity and binding.

[2] = test system: monoclonal antibody 30C6 (hybridoma 30C6, ATCC HB 10341), IgG induced by haptenic ligand Compound 1a; test: Hydrolysis of benzoate ester Compound 3 catalyzed by monoclonal antibody 30C6 (HPLC assay, Michaelis-Menten kinetics)
Procedure: Monoclonal antibodies at a concentration of 20 μM were initially screened (phosphate buffer 50 mM, pH 7.5, 100 mM NaCl, 37° degrees C.) against benzoate ester reactant ligand Compound 3, ([…]) for the production of 5-[[4-(hydroxy)phenyl]aming]-5-oxo-pentanoic acid, Compound 4. [Analysis was performed via HPLC on an RP-C18 column eluting with water: acetonitrile (op:10) at a flow of 1 ml/min with UV detector set to 254 nm. The hydrolysis product, Compound 4 (FIG. 1; retention time 7 minutes) was collected (recovered) an found to be identical by RP-HPLC coinjection and mass spectral analysis with an authentic sample.]
The pH dependence of the hydrolysis of substrate Compound 3 was examined in the presence of monoclonal antibodies 30C6 (20 μM) between pH 6.0 and 7.2 (Bis-tris) and 7.2-8.0 (phosphate), both at 50 mM buffer and 100 mM NaCl, 37° degrees C. (FIG. 2).

[3] = test system: monoclonal receptor (antibody) 27A6 (hybridoma 27A6, ATCC HB 10621), IgG induced by hapten Compound 5a; test: Hydrolysis of benzoate ester Compound 3 catalyzed by monoclonal receptor 27A6 (HPLC assay, Michaelis-Menten kinetics)
Procedure: That monoclonal receptor is also referred to as receptor or antibody 27A6.
Purified monoclonal antibodies were dialyzed against EPPS buffer (I mM, pH 8.0, 100 mM NaCl) or CHES buffer (1 mM, pH 8.0, 100 mM NaCl). Its protein concentration was determined by the BCA method (Pierce). Assays were performed by HPLC (reverse-phase column, C18, VYDAC 201Tp54) with C3 CN/H2 O (0.1 percent TFA) on an isocratic program of 10/90. An internal standard of o-acetamidophenol was used to calculate the amount of product formed [4-(carboxybutyramido)phenol].
Reactions contained 5 percent cosolvent dioxane, and the temperature was maintained at 37°±0.1°degrees C. Initial linear rates were measured at<5 percent hydrolysis of the total substrate. […] Kinetic parameters Vmax Km were determined by nonlinear least-squares fitting of the initial rate vs. substrate concentration to a hyperbolic curve described by the Michaelis-Menten equation.

[4] = test system: the three catalytic monoclonal antibodies obtained to hapten Compound 5a; test: HPLC screen of hydrolysis of Compound 3 by catalytic antibodies, inhibition by free hapten; details: 50 μM inhibitor; antibody 20 μM, Compound 3 500 μM, phosphate 50 mM, pH 7.5, 100 mM NaCl, 37 degrees C
Procedure: Antibodies at a concentration of 20μM were initially screened (phosphate buffer, 50 mM, pH 7.5, 100 mM NaCl, 37° degrees C.) via an HPLC assay against benzoate ester Compound 3, (500 μM) for the production of 5-[(4-hydroxyphenyl)aming]-5-oxopentanoic acid, Compound 4.

[5] = treatment with reagent in fifty-fold molar excess to protein
[6] = hydrolysis of Compound 3, 50 mM phosphate, 100 mM NaCl, pH 7.2, 37 degrees C, antibody 20 μM

SMILES: O=C(O)CCCC(=O)Nc1ccc(OC(=O)c2ccccc2)cc1 [Compound 3]
- Kcat^app [2, 6]: 5±0.2×10^-3 min^-1
- Km [2, 6]: 1.12 ± 0.05 mM
- ratio of kcat/ko (rate acceleration by the antibody over hydrolysis in water) ([2]; pH independent antibody-catalyzed rate vs hydrolysis of Compound 3 in water): over a million fold
- Kcat^app ([3]; hydrolysis of Compound 3, 50 mM EPPS, 100 mM NaCl, pH 8.5, 37 degrees C): 0.01 ± 0.002 min⁻¹

SMILES: Nc1ccc(CC(O)c2ccccc2C(=O)O)cc1 (stereo not shown) [Compound 5b]
- Ki ([3]; competitive inhibitor, substrate Compound 3, read-out: K (competitive inhibition of the antibody-catalyzed hydrolysis of Compound 3)): 6 ± 2 µM
- inhibition of catalysis [4]: completely inhibited

The next lines start with the values.

- esterolytic activity after treatment [1, 5]: unaffected
SMILES: CCOC(=O)OC(=O)OCC [diethyl pyrocarbonate]

- esterolytic activity after treatment [1, 5]: unaffected
SMILES: O=C1C=CC(=O)O1 [maleic anhydride]

- loss of catalytic activity in the presence of inhibitor Compound 5b ([1]; reagent in fifty-fold molar excess, Compound 5b five-fold molar excess to protein): 35%
- loss of catalytic activity [1, 5]: 75%
SMILES: O=CC(=O)c1ccccc1 [phenylglyoxal]
